This passage reports IC50 results from US5254543A, “Sulphonylbenzyl-substituted pyridones which are angiotension II receptor antagonists” (Bayer Aktiengesellschaft, priority 1992, dated 1993).

This test relates to angiotensin II-induced contraction of isolated rabbit aorta rings. Briefly: Inhibition of agonist-induced contraction, angiotensin II: inhibition of vascular contraction in isolated rabbit aorta rings in vitro. Conditions: based on the 3rd = submaximal agonist concentration, read-out: IC50 against contractions induced by AII. The procedure: Rabbits of both sexes are stunned by a blow to the neck and bled out, or in some cases anesthetised with Nembutal (about 60-80 mg/kg i.v.) and sacrificed by opening the thorax. The thorax aorta is taken out, freed from adhering connective tissue, divided into 1.5 mm wide ring segments and individually transferred under an initial loading of about 3.5 g to 10 ml organ baths containing 95% O2 /5% CO2 -aerated Krebs-Henseleit nutrient solution temperature-controlled at 37° C. of the following composition: 119 mmol/l of NaCl; 2.5 mmol/l of CaCl2 ×2 H2 O; 1.2 mmol/l of KH2 PO4; 10 mmol/l of glucose; 4.8 mmol/l of KCl; 1.4 mmol/l of MgSO4 ×7 H2 O and 25 mmol/l of NaHCO3.
The contractions are measured isometrically by Statham UC2 cells by means of bridge amplifiers (ifd Mulheim or DSM Aalen) and digitalised and analysed by means of A/D convertors (System 570, Keithley Munich). Agonist dose response curves (DRC) were plotted hourly. With each DRC, 3 or 4 individual concentrations are applied to the baths at an interval of 4 min. […]
The height of the 3rd DRC in the normal case is used as a reference quantity for the evaluation of the test substance to be investigated in further passages, which is applied to the baths in the following DRCs in increasing dosage in each case at the start of the incubation time. […]

The IC50 is the point on the concentration scale where inhibition reaches its midpoint.

Consider `CCCCc1cc(C(=O)O)cc(=O)n1Cc1ccc(S(=O)(=O)N2CCCC2C(=O)O)cc1Cl` (stereo not shown) [Example 6], for which the IC50 worked out at 280 nM.
